Reference: US7261876B2, “Multivalent constructs for therapeutic and diagnostic applications” (Bracco International BV, priority 2002, dated 2007)
“Also recorded” adds a separate entry of the source. No end group written: not given here.

Legend:
[1] = target: T1, KDR-expressing 293H cells (Homo sapiens, UniProt P35968); experiment: Bead-binding assay, peptide-conjugated fluorescent beads; type: cell-based; conditions: Neutravidin-coated beads, 40% FBS
T1 construct: Both PCR products were digested with Not1 and ligated together to create the full-length receptor; V5-His (encoded by the vector); expressed in transfected cells; host or cells: 293H cells (Invitrogen cat. # 11631), transient lipofectamine 2000 transfection
T1 sequence (P35968 20-1356): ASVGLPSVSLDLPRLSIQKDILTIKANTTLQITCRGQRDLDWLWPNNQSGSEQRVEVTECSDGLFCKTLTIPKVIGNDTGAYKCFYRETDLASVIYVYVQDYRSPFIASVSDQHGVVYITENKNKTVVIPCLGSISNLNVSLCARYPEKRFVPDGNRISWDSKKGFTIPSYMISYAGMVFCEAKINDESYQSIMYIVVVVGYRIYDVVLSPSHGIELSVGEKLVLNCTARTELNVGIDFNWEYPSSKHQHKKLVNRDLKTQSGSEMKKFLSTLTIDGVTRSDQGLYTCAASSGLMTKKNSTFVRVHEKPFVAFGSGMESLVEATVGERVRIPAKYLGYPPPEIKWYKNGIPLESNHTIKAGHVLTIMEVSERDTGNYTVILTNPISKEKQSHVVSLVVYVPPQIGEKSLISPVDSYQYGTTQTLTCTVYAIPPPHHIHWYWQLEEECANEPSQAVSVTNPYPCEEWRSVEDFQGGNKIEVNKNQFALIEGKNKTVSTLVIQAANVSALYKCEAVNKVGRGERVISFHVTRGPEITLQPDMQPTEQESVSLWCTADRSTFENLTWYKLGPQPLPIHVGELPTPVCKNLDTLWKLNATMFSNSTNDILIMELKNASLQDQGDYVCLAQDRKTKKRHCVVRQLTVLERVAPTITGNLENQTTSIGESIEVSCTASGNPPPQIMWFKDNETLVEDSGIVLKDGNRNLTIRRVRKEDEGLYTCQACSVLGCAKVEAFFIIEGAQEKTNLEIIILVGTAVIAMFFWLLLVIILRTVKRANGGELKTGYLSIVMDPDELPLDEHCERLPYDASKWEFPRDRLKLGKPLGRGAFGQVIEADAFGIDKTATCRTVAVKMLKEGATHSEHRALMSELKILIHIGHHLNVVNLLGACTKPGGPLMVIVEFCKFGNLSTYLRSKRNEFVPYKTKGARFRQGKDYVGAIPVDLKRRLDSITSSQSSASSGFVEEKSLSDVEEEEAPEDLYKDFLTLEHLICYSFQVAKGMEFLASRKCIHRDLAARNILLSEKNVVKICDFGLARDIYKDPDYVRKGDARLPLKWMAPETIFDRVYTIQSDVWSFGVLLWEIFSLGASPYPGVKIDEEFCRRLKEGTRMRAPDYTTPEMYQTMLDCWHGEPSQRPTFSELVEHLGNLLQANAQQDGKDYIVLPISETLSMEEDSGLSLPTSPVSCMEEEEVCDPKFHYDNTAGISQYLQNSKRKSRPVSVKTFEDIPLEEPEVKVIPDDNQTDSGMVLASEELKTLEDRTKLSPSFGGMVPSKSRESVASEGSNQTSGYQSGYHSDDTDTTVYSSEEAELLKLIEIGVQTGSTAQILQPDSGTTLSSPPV
Protocol: As a positive control, biotinylated anti-KDR antibody was incubated with the Neutravidin-coated beads as above, except that 0.03 mg of the biotinylated antibody preparation in PBS (Gibco 14190-136) was used instead of peptide solution. Beads can be stored at 4° C. until needed for up to 1 week.
293H cells were transfected using the protocol described in Example 6. Transfection was done in black/clear 96-well plates (Becton Dickinson, cat. # 354640). The cells in one half of the plate (48 wells) were mock-transfected (with no DNA) and those in the other half of the plate were transfected with KDR cDNA. The cells were 80–90% confluent at the time of transfection and completely confluent the next day, at the time of the assay; otherwise the assay was aborted.
From the above bead preparations, 0.12 mL was spun for 10 minutes at 2000 rpm in a microcentrifuge at room temperature. The supernatant was removed and 0.06 mL of MES pH 6.0 was added. Each bead solution was then vortexed and sonicated in a water bath 15 min. To 1.47 mL of DMEM, high glucose (GIBCO 11965-084) with 1×MEM Non-Essential Amino Acids Solution (NEAA) (GIBCO 11140-050) and 40% FBS (Hyclone SH30070.02) 0.03 mL of the sonicated bead preparations was added. 96-well plates seeded with 293H cells which have been mock-transfected in columns 1 to 6, and KDR-transfected in columns 7 to 12 (as described above), were drained and washed once with DMEM, high glucose with 1×NEAA and 40% FBS. To each well was added 0.1 mL of bead solution, six wells per bead preparation. […] After draining, 0.1 mL of PBS was added per well. The plates were then read on a Packard FluoroCount fluorometer at excitation 550 nm/emission 620 nm. Unconjugated Neutravidin beads were used as a negative control while beads conjugated with a biotinylated anti-KDR antibody were used as the positive control for the assay.
To calculate the number of beads bound per well, a standard curve with increasing numbers of the same fluorescent beads was included in each assay plate. The standard curve was used to calculate the number of beads bound per well based on the fluorescence intensity of each well.

KDR transfected cells = target: T2, KDR transfected cells (Homo sapiens, UniProt P35968); experiment: Competition of free peptides with P5-XB/avidin HRP complex (Experiment E); type: binding; conditions: P5-XB/avidin HRP 3.33 nM; free peptide 0–[…]
T2 construct: Both PCR products were digested with Not1 and ligated together to create the full-length receptor; V5-His (encoded by the vector); expressed in transfected cells; host or cells: 293H cells (Invitrogen cat. # 11631), transient lipofectamine 2000 transfection
T2 sequence (P35968 20-1356): as above
From the text: If the peptides bind to the same site on KDR, they would likely compete with each other for binding to KDR, whereas if the peptides bind to different sites, there should be no competition between the peptides for binding to KDR.

[2] = target: T3, KDR expressed by transfected 293H cells (Homo sapiens, UniProt P35968); experiment: Competition with 125I-labeled VEGF for binding to KDR-transfected 293H cells
T3 construct: Both PCR products were digested with Not1 and ligated together to create the full-length receptor; V5-His (encoded by the vector); expressed in transfected cells; host or cells: 293H cells (Invitrogen cat. # 11631), transient lipofectamine 2000 transfection
T3 sequence (P35968 20-1356): as above
Protocol: Once prepared, the solutions were kept on ice until ready to use.
Cells were used 24 h after transfection, and to prepare the cells for the assay, they were washed 3 times with room temperature M199 medium and placed in the refrigerator. […] After incubating at 4° C. for 2 h, the plates were washed 5 times with cold binding buffer, gently blotted dry and checked under a microscope for cell loss. 100 μL of solubilizing solution (2% Triton X-100, 10% Glycerol, 0.1% BSA) was added to each well and the plates were incubated at room temperature for 30 minutes. The solubilizing solution in each well was mixed by pipeting up and down, and transferred to 1.2 mL tubes. Each well was washed twice with 100 μL of solubilizing solution and the washes were added to the corresponding 1.2 mL tube.
After washing the cells, the bound radioactivity was quantitated on a gamma counter.

HUVECs = experiment: Endothelial cell proliferation assay, BrdU detection; type: cell-based, human; conditions: 10 μg/mL, in the presence of VEGF (30 ng/mL)
Protocol: Briefly, freshly isolated HUVECs (between p3–6) were cultured in RPMI+10% FCS+1% antibiotics+1% 1-glutamin+0.4% BBE (bovine brain extract) and seeded per well, 5000–10000/well in 100 μL. The cells were allowed to recover for 24 h prior to use. Then the cells were washed with PBS twice and treated for 48 h with anti-VEGF antibody (positive control) or peptides A, B and C (0.1 and 10 ug/mL) in RPMI+0.1% BSA+1% 1-glutamin. The following 6 variables were tested in 2 series (n=4): • Series I: w/o VEGF • Series II: w/VEGF (30 ng/mL) • 1. Standard medium: RPMI+10% FCS+1% antibiotics+1% 1-glutamin+0.4% BBE • 2. Negative control 1: RPMI (true starvation) • 3. Negative control 2: RPMI+0.1% BSA+1% 1-glutamin • 1. Positive control: anti-VEGF 10 μg/ml in RPMI+0.1% BSA+1% 1-glutamin • 5. 0.1 μg/ml KDR peptides in RPMI+0.1% BSA+1% 1-glutamin • 6. […] Note: Background binding was determined by omitting the anti-BrdU antibody in 4 wells with control cells (cultured in complete medium; EBM+BulletKit) and by complete labeling of cells that was not exposed to BrdU.

[3] = test system: VEGF-induced migration of HUVECs; experiment: HUVEC migration/invasion assay; type: cell-based, human
Protocol: After 22 hours, quantitation of cell migration/invasion was achieved by post-labeling cells in the insert plates with a fluorescent dye and measuring the fluorescence of the invading/migrating cells in a fluorescent plate reader. The VEGF-induced migration was calculated by subtracting the migration that occurred when only basal medium was placed in the lower chamber of the wells.
Serum-starved HUVECs were placed, 100,000 cells per well, into the upper chambers of BD fibronectin-coated FluoroBlok 24-well insert plates. […] After 22 hours, quantitation of cell migration/invasion was achieved by post-labeling cells in the insert plates with a fluorescent dye and measuring the fluorescence of the invading/migrating cells in a fluorescent plate reader. VEGF-stimulated migration was derived by subtracting the basal migration measured in the absence of VEGF.
Serum-starved HUVECs were placed, 100,000 cells per well, into the upper chambers of BD fibronectin-coated FluoroBlok 24-well insert plates. […] After 22 hours, quantitation of cell migration/invasion was achieved by post-labeling cells in the insert plates with a fluorescent dye and measuring the fluorescence of the invading/migrating cells in a fluorescent plate reader. […]

[4] = test system: SW-480 human colon carcinoma cells; experiment: In vivo xenograft tumor model; conditions: Study Day 22; 6.0 mg/kg IV, five doses
Protocol: Female athymic nude mice (Crl:NU/NU-nuBR) at 6–8 weeks of age were used in this study. […] Test compound and vehicle were administered intraperitoneally (IP), Cisplatin was administered intravenously (IV). Tumor measurements were recorded twice weekly using hand-held calipers. Mice were monitored daily for signs of toxicity and morbidity. At study termination, animals were euthanized by carbon dioxide overdose and necropsied for tissue collection.
A total of nine (9) groups were used in this study. Each group contained ten (10) tumor-bearing mice. Groups 1 and 2 contained untreated and vehicle treated negative control mice, respectively. […] Group 9 contained mice that received cisplatin, a standard chemotherapeutic compound as a positive control.
Dosing began the same day that animals were randomly sorted into groups (Study Day 7). Each dose was removed from the dose vial using aseptic technique for each animal and the injection site was wiped with an alcohol swab prior to dose administration. […]
Clinical Observations of each animal were performed and recorded at least once daily for toxicity, morbidity and mortality. […]
In accordance with the protocol, tumor measurements were taken twice weekly throughout the study by measuring the length and width of tumors with calibrated calipers. […] Tumor weights were calculated using the following formula: mg=(L×W^2)/2. […]

[5] = target: T4, KDR-transfected 293H cells (Homo sapiens, UniProt P35968); experiment: Binding of radiolabeled (Tc, I, Lu) peptides to KDR-transfected 293H cells
T4 construct: Both PCR products were digested with Not1 and ligated together to create the full-length receptor; V5-His (encoded by the vector); expressed in transfected cells; host or cells: 293H cells (Invitrogen cat. # 11631), transient lipofectamine 2000 transfection
T4 sequence (P35968 20-1356): as above

[6] = target: T4, KDR-transfected 293H cells; experiment: Binding of peptide-conjugated microbubbles to KDR-transfected cells; type: cell-based
Protocol: 293H cells were transfected with KDR cDNA. […] Competition was also performed using a non-binding control peptide as a competing compound.
293H cells were transfected with KDR cDNA.
D23 (a dimeric construct of P6- and P12-derived sequences) was conjugated with a preparation of microbubbles as above described, according to the following methodology. The thioacetylated peptide ([…]) was dissolved in 20 μl DMSO and then diluted in 1 ml of Phosphate Buffer Saline (PBS). This solution was mixed to the N-MPB-functionalized microbubbles dispersed in 18 ml of PBS-EDTA 10 mM, pH 7.5 and 2 ml of deacetylation solution (50 mM sodium phosphate, 25 mM EDTA, 0.5 M hydroxylamine.HCl, pH 7.5) was added. The headspace was filled with C4F10/Air (50/50) and the mixture was incubated for 2.5 hours at room temperature under gentle agitation (rotating wheel), in the dark. Conjugated bubbles were washed by centrifugation. Similarly, the monomer peptides making up D23 were separately conjugated to two different microbubble preparations according to the methodology described above.

KDR/VEGF complex = target: T5, KDR/VEGF complex (Homo sapiens, UniProt P35968); experiment: Cell based assay for binding of KDR/VEGF complex binders (peptide-125I-streptavidin complexes); conditions: in the presence of VEGF
T5 construct: Both PCR products were digested with Not1 and ligated together to create the full-length receptor; V5-His (encoded by the vector); expressed in transfected cells; host or cells: 293H cells, transiently transfected; VEGF added exogenously
T5 sequence (P35968 20-1356): as above
T5 sequence (P15692 27-191 isoform P15692-4 partner): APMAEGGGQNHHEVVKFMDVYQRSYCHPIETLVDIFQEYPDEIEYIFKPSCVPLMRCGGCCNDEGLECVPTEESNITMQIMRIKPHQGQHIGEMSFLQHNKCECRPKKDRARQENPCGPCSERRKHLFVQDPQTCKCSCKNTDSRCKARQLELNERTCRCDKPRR
From the text: Furthermore, these peptides, as well as other peptides which bind KDR/VEGF complex may advantageously be included in heteromultimers of the invention.

KDR-expressing cells = target: T6, KDR-expressing cells (Homo sapiens, UniProt P35968); experiment: Displacement assay competing with P12-XB/streptavidin-HRP complex for binding to KDR-expressing cells; conditions: complex concentration 5.5 nM
T6 construct: Both PCR products were digested with Not1 and ligated together to create the full-length receptor; V5-His (encoded by the vector); expressed in transfected cells; host or cells: 293H cells (Invitrogen cat. # 11631), transient lipofectamine 2000 transfection
T6 sequence (P35968 20-1356): as the sequence (P35968 20-1356) above
Protocol: After determining the specific binding under each experimental condition, the IC50 for each peptide was determined (where possible).

## Ac-AGPKWC*EEDWYYC*MITGTGGGK-(Biotin-JJ-)-NH2 [P5-XB]
[1]
  binding of ligand-coated fluorescent beads to KDR-transfected vs mock-transfected cells: Specific binding to KDR was detected
KDR transfected cells
  competition with P5-XB/avidin HRP solution for binding: does compete
[2]; 0.3 μM peptide
  percentage inhibition of 125I-labeled VEGF binding: 24.41±8.43%
[2]; 30 μM peptide
  percentage inhibition of 125I-labeled VEGF binding: 47.95±5.09%

## CC(=O)N[C@@H](C)C(=O)NCC(=O)N1CCC[C@H]1C(=O)N[C@H](C(=O)N[C@@H](Cc1c[nH]c2ccccc12)C(=O)N[C@H]1CSSC[C@@H](C(=O)N[C@@H](Cc2c[nH]c3ccccc23)C(=O)N[C@@H](CC(C)C)C(=O)N[C@@H](Cc2ccccc2)C(=O)NCC(=O)N[C@H](C(=O)NCC(=O)NCC(=O)NCC(=O)N[C@@H](CCCCN)C(N)=O)[C@@H](C)O)NC(=O)[C@H](Cc2ccc(O)cc2)NC(=O)[C@H](Cc2ccc(O)cc2)NC(=O)[C@H](Cc2c[nH]c3ccccc23)NC(=O)[C@H](CC(=O)O)NC(=O)[C@H](CC(=O)O)NC(=O)[C@H](CCC(=O)O)NC1=O)[C@@H](C)O [P12-G, Ac-AGPTWC*EDDWYYC*WLFGT-GGGK-NH2]
HUVECs
  inhibition of HUVEC proliferation: does not inhibit proliferation

## Ac-GDSRVC*WEDSWGGEVC*FRYDPGGGK-(Biotin-JJ-)-NH2 [P6-XB]
KDR transfected cells
  competition with P5-XB/avidin HRP solution for binding: do not compete

## Ac-ERVTTCWPGEYGGVECYSVAY-NH2 (cysteine pairing not given here) [PG-1, reference compound]
[3]; up to 62.5 nM
  VEGF-stimulated migration: had no effect on VEGF-stimulated migration
[2]
  competition with 125I-VEGF for binding to KDR-transfected cells: competed about equally well

## N.N.[Cl][Pt][Cl] [Cisplatin]
[4]
  mean tumor weight: 995 mg

## Tc-labeled D18: 99mTc-labeled scrambled dimer D18 (peptide 1 APGTWCDYDWEYCWLGTFGGGK; peptide 2 GVDFRCEWSDWGEVGCRSPDYGGGK; not fully specified (bridges); cysteine pairing not given here; also: 99mTc label, site not given here, heterodimer, linkage not given here)
[5]
  binding of radiolabeled compound to KDR transfected vs mock transfected 293H cells: displayed no affinity for either mock-transfected or KDR-transfected 293H cells

## GDSRVCWEDSWGGEVCFRYDP [P6]
[1]
  binding of ligand-coated fluorescent beads to KDR-transfected vs mock-transfected cells: Specific binding to KDR was detected
[6]; Experiment C, 50% human serum
  binding of conjugated microbubbles: bound poorly

## Ac-AGPGPCKGYMPHQCWYMGTGGGK(Biotin-JJ)-NH2 [P30-XB]
KDR/VEGF complex
  specific binding of peptide-125I-streptavidin complex (KDR-mock): specifically bound to KDR-transfected 293H cells; also recorded: showed specific binding

## CC(C)c1cc(/C=C(\C#N)C(=O)NCCCc2ccccc2)cc(C(C)C)c1O [SU1498, (E)-3-(3,5-Diisopropyl-4-hydroxyphenyl)-2-[(3-phenyl-n-propyl)aminocarbonyl]acrylonitrile]
[3]; 3 micromolar
  VEGF-induced migration blocked: 47%

## Ac-AGMPWCVEKDHWDCWWWGTGGGK(Biotin-JJ)-NH2 [P31-XB]
KDR/VEGF complex
  specific binding of peptide-125I-streptavidin complex (KDR-mock): Only the complex containing P30-XB showed specific binding

## Ac-DWYYGGGK-NH2 [F1]
KDR-expressing cells
  inhibition of P12-XB streptavidin-HRP complex binding: IC50 below one micromolar

## AGPTWCEDDWYYCWLFGT [P12]
[6]; Experiment A, free peptide 100 μM to 3 nM
  competition of conjugated microbubbles by free peptide: competed off by the corresponding free KDR-specific peptide

## Ac-AGYGPCKNMPPWMCWHEGTGGGK(Biotin-JJ)-NH2 [P32-XB]
KDR/VEGF complex
  specific binding of peptide-125I-streptavidin complex (KDR-mock): Only the complex containing P30-XB showed specific binding
